From patent US20080176932A1, “Pharmaceutical Compositions Containing Baicalein And Baicalin With Synergistic Effect In Tumor Treatment” (priority 2005, published 2008)
Read-outs that look alike come from different tables or passages of the source.

Experiments:
[1] = system: Human leukemia cell line HL60; test: MTT growth inhibition, baicalein and scutellarin single or combination; format: cell-based
[2] = system: Murine melanoma cell line B 16; test: Solid tumor transplant model, baicalein and baicalin; format: in vivo; details: B16 mice, B 30 mg/kg i.p., day 1-10
Protocol: (§1) C57BL/6 female mice (weight approximately 20 g) were used in this study. Murine melanoma cell line B 16 cells, 2×10^6 tumor cells were implanted s.c. into the armpit of each mice after two passenges in vitro cultured. On the next day after implantation, mice were randomly grouped at 10 per group and received 0.1 ml/10 g weight of the drugs. […] The number of mice of each group was 10. Mice were weighed before and post the treatment. Animals were killed on day 15, and the tumors were removed and weighted.

[3] = system: Human hung cancer cell line A549; test: MTT growth inhibition, baicalein and baicalin single or combination; format: cell-based
From the text: Human hung cancer cell line A549—Table 3;

[4] = system: Human esophagus cancer cell line TE2; test: MTT growth inhibition, baicalein and scutellarin single or combination; format: cell-based
Protocol: (§2) Cells were seeded onto 96-well plate at 5×10^3 cells/well, and grown in culture medium containing 10% fetal bovine serum (FBS). […] The viable cell growth was determined by MTT assay after 72-h continuous exposure.
(§3) A CI below 1 is an indication of synergy, while a CI equal to 1 represents addition, and a CI above 1 indicates antagonism.

[5] = system: Human breast cancer cell line MCF-7; test: as above; format: cell-based
Protocol: as §2, §3

[6] = system: Human prostate cancer cell line PC3; test: as above; format: cell-based
Protocol: as §2, §3

L1210 cells [7] = format: in vivo; details: B 30 mg/kg i.p., day 1-10
Protocol: (§4) L1210 cells on the growth phase were injected at 1×10^5 cells via I.P. into BDF1 female mice (weight approximately 20 g). The next day of implantation, mice were grouped, and received an injection of 0.1 ml/10 g weight of the drug. […] The number of mice of each group was 10. Mice were weighed before and after the treatment. Survival time of each mouse was recorded. The results of changes in increasing of life span of mice were used in assessment of response. The increase of life span was determined as; increase of life span rate=(median survival time of treated animals/median survival time of control animals−1)×100%, the data were analyzed by t-test.

[8] = system: human liver cancer cell line HepG2; test: MTT growth inhibition, baicalein and baicalin single or combination; format: cell-based
From the text: The results of experiments with human liver cancer cell line HepG2 are illustrated in Table 1;

[9] = system: Human prostate cancer cell line PC3
[10] = system: Human gastric cancer cell line MKN28; test: MTT growth inhibition, baicalein and scutellarin single or combination; format: cell-based
[11] = system: Human leukemia cell line HL60; test: MTT growth inhibition, baicalein and baicalin single or combination; format: cell-based
From the text: Human leukemia cell line HL60—Table 8.

[12] = system: Human gastric cancer cell line MKN28; test: as above; format: cell-based
From the text: Human gastric cancer cell line MKN28—Table 4;

[13] = system: Human breast cancer cell line MCF-7
[14] = system: Human colon cancer cell line HCT116; test: MTT growth inhibition, baicalein and scutellarin single or combination; format: cell-based
[15] = system: Human esophagus cancer cell line TE2
[16] = system: Murine melanoma cell line B 16; test: Solid tumor transplant model, baicalein and scutellarin; format: in vivo, C57BL/6 female mice; details: B16 mice, B 30 mg/kg i.p., day 1-10
Protocol: as §1, with “0.1ml/10” for “0.1 ml/10”

L1210 cells [17] = format: in vivo; details: B 30 mg/kg i.p., day 1-10; remark: listed apart in the source
Protocol: as §4

[18] = system: human liver cancer cell line HepG2; test: MTT growth inhibition, baicalein and scutellarin single or combination; format: cell-based
[19] = system: Human colon cancer cell line HCT116; test: MTT growth inhibition, baicalein and baicalin single or combination; format: cell-based
From the text: Human colon cancer cell line HCT116—Table 2;

[20] = system: Human hung cancer cell line A549; test: MTT growth inhibition, baicalein and scutellarin single or combination; format: cell-based

## O=c1cc(-c2ccccc2)oc2cc(O)c(O)c(O)c12 [B, baicalein]
[1]; single dose 2.5 μm
  Inhibition of cell growth (%): 7.5 ± 2.7%
[1]; single dose 5 μm
  Inhibition of cell growth (%): 22.7 ± 2.2%
[1]; single dose 10 μm
  Inhibition of cell growth (%): 41.8 ± 2.7%
[1]; single dose 20 μm
  Inhibition of cell growth (%): 60.6 ± 3.2%
[1]; single dose 40 μm
  Inhibition of cell growth (%): 89.18 ± 2.1%
[2]; day 15
  Final Tumor WT. (g) Mean ± SD: 1.72 ± 0.09 g
  Tumor Growth Inhibition %: 21.1%
[2]
  Weight Change %: <5%
[3]; single dose 2.5 μm
  Inhibition of cell growth (%): 13.5 ± 4%
[3]; single dose 5 μm
  Inhibition of cell growth (%): 17.18 ± 3%
[3]; single dose 10 μm
  Inhibition of cell growth (%): 39.2 ± 2%
[3]; single dose 20 μm
  Inhibition of cell growth (%): 63.85 ± 3.2%
[3]; single dose 40 μm
  Inhibition of cell growth (%): 96.41 ± 2%
[4]; single dose 2.5 μm
  Inhibition of cell growth (%): 5 ± 2%
[4]; single dose 5 μm
  Inhibition of cell growth (%): 16.8 ± 1.2%
[4]; single dose 10 μm
  Inhibition of cell growth (%): 38.4 ± 2.1%
[4]; single dose 20 μm
  Inhibition of cell growth (%): 66.85 ± 2%
[4]; single dose 40 μm
  Inhibition of cell growth (%): 83.1 ± 2.1%
[5]; single dose 2.5 μm
  Inhibition of cell growth (%): 0.8 ± 2%
[5]; single dose 5 μm
  Inhibition of cell growth (%): 13.02 ± 2.5%
[5]; single dose 10 μm
  Inhibition of cell growth (%): 51.02 ± 2.2%
[5]; single dose 20 μm
  Inhibition of cell growth (%): 64.35 ± 2.2%
[5]; single dose 40 μm
  Inhibition of cell growth (%): 93 ± 2.5%
[6]; single dose 2.5 μm
  Inhibition of cell growth (%): 7.2 ± 5%
[6]; single dose 5 μm
  Inhibition of cell growth (%): 22.8 ± 6%
[6]; single dose 10 μm
  Inhibition of cell growth (%): 50.9 ± 5%
[6]; single dose 20 μm
  Inhibition of cell growth (%): 69.9 ± 5%
[6]; single dose 40 μm
  Inhibition of cell growth (%): 92.9 ± 7%
L1210 cells [7]
  Number of mice Through surviving 15 days/total number: 10/10
L1210 cells [7]; L1210 mice
  ILS(%) increase of life span: 31.6%
[8]; single dose 2.5 μm
  Inhibition of cell growth (%): 7.4 ± 2%
[8]; single dose 5 μm
  Inhibition of cell growth (%): 34.93 ± 3%
[8]; single dose 10 μm
  Inhibition of cell growth (%): 50.2 ± 3%
[8]; single dose 20 μm
  Inhibition of cell growth (%): 58.5 ± 2.5%
[8]; single dose 40 μm
  Inhibition of cell growth (%): 89.18 ± 2%
[9]; single dose 2.5 μm
  Inhibition of cell growth (%): 7.2 ± 5%
[9]; single dose 5 μm
  Inhibition of cell growth (%): 22.8 ± 6%
[9]; single dose 10 μm
  Inhibition of cell growth (%): 50.9 ± 5%
[9]; single dose 20 μm
  Inhibition of cell growth (%): 69.9 ± 5%
[9]; single dose 40 μm
  Inhibition of cell growth (%): 92.9 ± 7%
[10]; single dose 2.5 μm
  Inhibition of cell growth (%): 16.5 ± 1.1%
[10]; single dose 5 μm
  Inhibition of cell growth (%): 27.7 ± 2.1%
[10]; single dose 10 μm
  Inhibition of cell growth (%): 42.8 ± 2.3%
[10]; single dose 20 μm
  Inhibition of cell growth (%): 65.6 ± 3%
[10]; single dose 40 μm
  Inhibition of cell growth (%): 80.21 ± 2.5%
[11]; single dose 2.5 μm
  Inhibition of cell growth (%): 6.5 ± 2%
[11]; single dose 5 μm
  Inhibition of cell growth (%): 21.8 ± 3%
[11]; single dose 10 μm
  Inhibition of cell growth (%): 41.32 ± 2.7%
[11]; single dose 20 μm
  Inhibition of cell growth (%): 67.6 ± 3.2%
[11]; single dose 40 μm
  Inhibition of cell growth (%): 86.77 ± 3.3%
[12]; single dose 2.5 μm
  Inhibition of cell growth (%): 7.7 ± 3%
[12]; single dose 5 μm
  Inhibition of cell growth (%): 37.11 ± 2.9%
[12]; single dose 10 μm
  Inhibition of cell growth (%): 53 ± 3.2%
[12]; single dose 20 μm
  Inhibition of cell growth (%): 58 ± 2%
[12]; single dose 40 μm
  Inhibition of cell growth (%): 77 ± 3%
[13]; single dose 2.5 μm
  Inhibition of cell growth (%): 7.2 ± 2%
[13]; single dose 5 μm
  Inhibition of cell growth (%): 27.55 ± 2%
[13]; single dose 10 μm
  Inhibition of cell growth (%): 51 ± 3%
[13]; single dose 20 μm
  Inhibition of cell growth (%): 71.77 ± 2.5%
[13]; single dose 40 μm
  Inhibition of cell growth (%): 90.5 ± 2.5%
[14]; single dose 2.5 μm
  Inhibition of cell growth (%): 5.8 ± 2%
[14]; single dose 5 μm
  Inhibition of cell growth (%): 10.5 ± 2.3%
[14]; single dose 10 μm
  Inhibition of cell growth (%): 29.2 ± 2.7%
[14]; single dose 20 μm
  Inhibition of cell growth (%): 47 ± 3.1%
[14]; single dose 40 μm
  Inhibition of cell growth (%): 91.15 ± 2.5%
[15]; single dose 2.5 μm
  Inhibition of cell growth (%): 5.5 ± 1%
[15]; single dose 5 μm
  Inhibition of cell growth (%): 17.2 ± 2.8%
[15]; single dose 10 μm
  Inhibition of cell growth (%): 28 ± 2%
[15]; single dose 20 μm
  Inhibition of cell growth (%): 57.9 ± 2.1%
[15]; single dose 40 μm
  Inhibition of cell growth (%): 85.2 ± 2.3%
[16]; day 15
  Final Tumor WT. (g) Mean ± SD: 1.72 ± 0.09 g
  Tumor Growth Inhibition %: 21.1%
[16]
  Number of mice through 15 days/total number: 10/10
  Weight Change %: <5%
L1210 cells [17]
  Number of mice Surviving through 15 days/total number: 10/10
L1210 cells [17]; L1210 mice
  ILS(%) increase of life span: 31.6%
[18]; single dose 2.5 μm
  Inhibition of cell growth (%): 7.35 ± 2.2%
[18]; single dose 5 μm
  Inhibition of cell growth (%): 32.7 ± 2.3%
[18]; single dose 10 μm
  Inhibition of cell growth (%): 49.8 ± 2.1%
[18]; single dose 20 μm
  Inhibition of cell growth (%): 58.5 ± 1.2%
[18]; single dose 40 μm
  Inhibition of cell growth (%): 90.18 ± 2.5%
[19]; single dose 2.5 μm
  Inhibition of cell growth (%): 5.8 ± 2%
[19]; single dose 5 μm
  Inhibition of cell growth (%): 20.5 ± 3%
[19]; single dose 10 μm
  Inhibition of cell growth (%): 29.2 ± 3%
[19]; single dose 20 μm
  Inhibition of cell growth (%): 41 ± 2.7%
[19]; single dose 40 μm
  Inhibition of cell growth (%): 89.15 ± 3%
[20]; single dose 2.5 μm
  Inhibition of cell growth (%): 10.55 ± 1.2%
[20]; single dose 5 μm
  Inhibition of cell growth (%): 17.19 ± 2.2%
[20]; single dose 10 μm
  Inhibition of cell growth (%): 40.8 ± 3.2%
[20]; single dose 20 μm
  Inhibition of cell growth (%): 62.5 ± 2%
[20]; single dose 40 μm
  Inhibition of cell growth (%): 90.18 ± 2.1%
